Measurements: PubChem BioAssay (NCI)
Where “and” joins values, the source holds several entries; their conditions need not be identical. Identical values can stand only once.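 Results reflect a 48-hour exposure of cells in 96-well plates to compound at five concentrations. At the GI50, growth is halved. TGI: concentration producing complete growth inhibition.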

Experiments:
Assay in all cases: NCI-60 cell line screen, 48 h
PC-3 prostate = tested on: PC-3 prostate
OVCAR-4 ovarian = tested on: OVCAR-4 ovarian
LOX IMVI melanoma = tested on: LOX IMVI melanoma
UACC-62 melanoma = tested on: UACC-62 melanoma
T-47D breast = tested on: T-47D breast
U251 CNS = tested on: U251 CNS
RXF 393 renal = tested on: RXF 393 renal
SK-MEL-2 melanoma = tested on: SK-MEL-2 melanoma
SK-MEL-5 melanoma = tested on: SK-MEL-5 melanoma
KM12 colon = tested on: KM12 colon

COc1c2ccoc2cc2oc(=O)ccc12
TGI (PC-3 prostate): > 100 µM
TGI (OVCAR-4 ovarian): > 100 µM
TGI (LOX IMVI melanoma): > 100 µM
TGI (UACC-62 melanoma): > 100 µM
TGI (T-47D breast): > 100 µM
TGI (U251 CNS): > 100 µM
TGI (RXF 393 renal): > 100 µM
TGI (SK-MEL-2 melanoma): > 100 µM
TGI (SK-MEL-5 melanoma): > 100 µM

CN(C)CCCNC(=O)c1ccc2oc3cc4ccccc4c(=O)n3c2c1
GI50 (PC-3 prostate): > 50 µM
TGI (PC-3 prostate): > 50 µM
GI50 (KM12 colon): 18.5 µM
TGI (KM12 colon): > 50 µM
GI50 (LOX IMVI melanoma): 10.8 µM
TGI (LOX IMVI melanoma): 27 µM
GI50 (UACC-62 melanoma): > 50 µM
TGI (UACC-62 melanoma): > 50 µM
GI50 (T-47D breast): > 50 µM
TGI (T-47D breast): > 50 µM
GI50 (U251 CNS): 37.5 µM
TGI (U251 CNS): > 50 µM
GI50 (RXF 393 renal): 41.6 µM
TGI (RXF 393 renal): > 50 µM
GI50 (SK-MEL-2 melanoma): > 50 µM
TGI (SK-MEL-2 melanoma): > 50 µM
GI50 (SK-MEL-5 melanoma): 11.2 µM
TGI (SK-MEL-5 melanoma): 28.8 µM

CN1CCC(CNc2ccc3ncc(-c4cccc(OC(F)(F)F)c4)n3n2)CC1
GI50 (PC-3 prostate): 1.67 µM and 2.41 µM
TGI (PC-3 prostate): 7.13 µM and > 10 µM
GI50 (KM12 colon): 0.331 µM and 0.427 µM
TGI (KM12 colon): 1.78 µM and > 10 µM
GI50 (OVCAR-4 ovarian): 2.39 µM and 3.81 µM
TGI (OVCAR-4 ovarian): 8.21 µM and > 10 µM
GI50 (LOX IMVI melanoma): 1.56 µM and 1.47 µM
TGI (LOX IMVI melanoma): 3.2 µM and 2.85 µM
GI50 (UACC-62 melanoma): 1.76 µM
TGI (UACC-62 melanoma): 3.66 µM
GI50 (T-47D breast): 1.44 µM and 1.28 µM
TGI (T-47D breast): 3.01 µM and 3.56 µM
GI50 (U251 CNS): 1.6 µM and 1.44 µM
TGI (U251 CNS): 3.23 µM and 2.97 µM
GI50 (RXF 393 renal): 1.44 µM and 1.72 µM
TGI (RXF 393 renal): 3.68 µM and 6.48 µM
GI50 (SK-MEL-2 melanoma): 1.64 µM and 1.76 µM
TGI (SK-MEL-2 melanoma): 3.25 µM and 4.34 µM
GI50 (SK-MEL-5 melanoma): 1.47 µM and 1.51 µM
TGI (SK-MEL-5 melanoma): 2.82 µM and 2.85 µM

Cc1cccc(-c2nn3c(c2-c2ccnc4ccc(C(N)=O)cc24)CCC3)n1
GI50 (PC-3 prostate): > 100 µM
TGI (PC-3 prostate): > 100 µM
GI50 (KM12 colon): > 100 µM
TGI (KM12 colon): > 100 µM
GI50 (OVCAR-4 ovarian): > 100 µM
TGI (OVCAR-4 ovarian): > 100 µM
GI50 (LOX IMVI melanoma): > 100 µM
TGI (LOX IMVI melanoma): > 100 µM
GI50 (UACC-62 melanoma): 78.8 µM
TGI (UACC-62 melanoma): > 100 µM
GI50 (T-47D breast): 57.6 µM
TGI (T-47D breast): > 100 µM
GI50 (U251 CNS): > 100 µM
TGI (U251 CNS): > 100 µM
GI50 (RXF 393 renal): > 100 µM
TGI (RXF 393 renal): > 100 µM
GI50 (SK-MEL-2 melanoma): > 100 µM
TGI (SK-MEL-2 melanoma): > 100 µM
GI50 (SK-MEL-5 melanoma): > 100 µM
TGI (SK-MEL-5 melanoma): > 100 µM

COc1ccccc1/C=C/C(=O)c1c(O)cc2occc2c1OC
GI50 (PC-3 prostate): > 100 µM
TGI (PC-3 prostate): > 100 µM
GI50 (KM12 colon): > 100 µM
TGI (KM12 colon): > 100 µM
GI50 (OVCAR-4 ovarian): > 100 µM
TGI (OVCAR-4 ovarian): > 100 µM
GI50 (LOX IMVI melanoma): 30.1 µM
TGI (LOX IMVI melanoma): > 100 µM
GI50 (UACC-62 melanoma): 23.7 µM
TGI (UACC-62 melanoma): > 100 µM
GI50 (T-47D breast): 55.9 µM
TGI (T-47D breast): > 100 µM
GI50 (U251 CNS): 18.9 µM
TGI (U251 CNS): > 100 µM
GI50 (RXF 393 renal): 14.9 µM
TGI (RXF 393 renal): 42.6 µM
GI50 (SK-MEL-2 melanoma): > 100 µM
TGI (SK-MEL-2 melanoma): > 100 µM
GI50 (SK-MEL-5 melanoma): > 100 µM
TGI (SK-MEL-5 melanoma): > 100 µM

CCN(CC)CCCC(C)Nc1cc(-c2ccc(C(F)(F)F)cc2)c(C#N)c2nc3ccccc3n12 (stereo not drawn)
GI50 (PC-3 prostate): 2.06 µM
TGI (PC-3 prostate): 4.26 µM
GI50 (KM12 colon): 3.29 µM
TGI (KM12 colon): 12.6 µM
GI50 (OVCAR-4 ovarian): 3.12 µM
TGI (OVCAR-4 ovarian): 10.1 µM
GI50 (UACC-62 melanoma): 1.72 µM
TGI (UACC-62 melanoma): 3.38 µM
GI50 (T-47D breast): 2.23 µM
TGI (T-47D breast): 5.45 µM
GI50 (U251 CNS): 2.04 µM
TGI (U251 CNS): 4.16 µM
GI50 (RXF 393 renal): 1.4 µM
TGI (RXF 393 renal): 2.96 µM
GI50 (SK-MEL-2 melanoma): 2.27 µM
TGI (SK-MEL-2 melanoma): 4.15 µM
